Results published in patent US10494376B2, “Tetrahydroisoquinoline derived PRMT5-inhibitors” (CTXT PTY LTD, priority 2014, dated 2019).
Where a name gives a salt, the structure may show the parent alone.

Target: Full-length PRMT5 enzyme (NCBI Reference sequence NP_006100.2) co-expressed with His6-MEP50 (Homo sapiens (Human), UniProt O14744)
Test: Revised PRMT5 Biochemical Assay
Conditions: 1 μM peptide substrate, 1 μM S-Adenosyl methionine, 4 hours at 37 degree Celsius, Transcreener EPIGEN fluorescence polarisation
Method: Compounds of the invention may be tested for in vitro activity in the following assay: A histone H4 derived peptide is used as substrate (amino acid sequence: […]N H2). Full-length PRMT5 enzyme (NCBI Reference sequence NP_006100.2) was co-expressed with His6-MEP50 in insect cells and purified via Nickel immobilized metal affinity and gel filtration chromatography (“the enzyme”).
The 6 μL reactions are run in Greiner brand black 384-well low volume assay plates. All reactions contained assay buffer (phosphate buffered saline, 0.01% (v/v) Tween-20, 0.01% (w/v) albumin from chicken egg white, 1 mM Dithiothreitol, 1 μM peptide substrate, 1 μM S-Adenosyl methionine, and 15 ng/reaction enzyme, with the enzyme being omitted from negative control reactions. Compounds were added in a volume of 100 nL from dilution series prepared in DMSO, positive and negative control reactions receiving the same volume DMSO without compound. The plates were sealed with adhesive seals and incubated for 4 hours at 37 degree Celsius. Reaction progress was measured using the Transcreener™ EPIGEN methyltransferase assay (BellBrook Labs, Madison, Wis.) as recommended by the manufacturer. To each reaction 2 μL detection mix were added, containing coupling enzymes, fluorescence polarisation tracer, and AMP antibody. Plates were incubated for 90 minutes before being read on a PerkinElmer EnVision™ plate reader in fluorescence polarisation mode. IC50 values were obtained from the raw readings by calculating percent inhibition (%1) for each reaction relative to controls on the same plate (% I=(I−CN)/(CP−CN) where CN/CP are the averages of the negative/positive reactions, respectively), then fitting the %1 data vs. compound concentration [I] to % I=(A+((B−A)/(1+((C/[I])^D)))) where A is the lower asymptote, B is the upper asymptote, C is the IC50 value, and D is the slope.

Sequence of Full-length PRMT5 enzyme (NCBI Reference sequence NP_006100.2) co-expressed with His6-MEP50 (O14744 whole entry): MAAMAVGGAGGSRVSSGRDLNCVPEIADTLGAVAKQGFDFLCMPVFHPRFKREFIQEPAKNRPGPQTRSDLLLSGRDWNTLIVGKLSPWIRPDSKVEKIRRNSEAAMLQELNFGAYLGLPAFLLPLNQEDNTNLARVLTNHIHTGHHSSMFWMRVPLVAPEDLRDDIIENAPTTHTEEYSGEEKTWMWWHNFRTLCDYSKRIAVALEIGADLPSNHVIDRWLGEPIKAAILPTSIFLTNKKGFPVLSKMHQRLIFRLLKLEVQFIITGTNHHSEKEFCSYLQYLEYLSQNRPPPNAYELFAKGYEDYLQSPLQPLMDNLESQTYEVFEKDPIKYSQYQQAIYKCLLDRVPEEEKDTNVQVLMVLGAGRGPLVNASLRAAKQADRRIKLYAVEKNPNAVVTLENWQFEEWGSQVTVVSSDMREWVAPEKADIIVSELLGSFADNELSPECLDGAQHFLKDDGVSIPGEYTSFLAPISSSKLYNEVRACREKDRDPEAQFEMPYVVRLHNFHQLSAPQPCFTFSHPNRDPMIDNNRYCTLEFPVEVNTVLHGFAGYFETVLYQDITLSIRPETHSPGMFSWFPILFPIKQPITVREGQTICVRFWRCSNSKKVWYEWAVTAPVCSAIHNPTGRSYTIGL
Sequence of Full-length PRMT5 enzyme (NCBI Reference sequence NP_006100.2) co-expressed with His6-MEP50 (Q9BQA1 whole entry partner): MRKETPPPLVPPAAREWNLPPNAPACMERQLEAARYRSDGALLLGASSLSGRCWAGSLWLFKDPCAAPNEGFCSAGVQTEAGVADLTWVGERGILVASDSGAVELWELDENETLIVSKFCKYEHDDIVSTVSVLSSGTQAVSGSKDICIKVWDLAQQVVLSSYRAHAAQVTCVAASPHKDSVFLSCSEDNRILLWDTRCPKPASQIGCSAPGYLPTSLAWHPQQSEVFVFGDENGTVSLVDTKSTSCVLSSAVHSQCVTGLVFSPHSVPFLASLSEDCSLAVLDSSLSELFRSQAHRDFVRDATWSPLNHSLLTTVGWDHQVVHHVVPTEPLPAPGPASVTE

Row | SMILES | IC50
1 | O=C(NC[C@@H](O)[C@@H]1Cc2ccccc2CN1)c1ccccc1Cl [Example 4, 2-Chloro-N-((R)-2-hydroxy-2-((S)-1,2,3,4-tetrahydroisoquinolin-3-yl)ethyl)benzamide] | 8790 nM
2 | O=C(NC[C@@H](O)[C@@H]1Cc2ccccc2CN1)c1ccccc1C(F)(F)F [Example 5, N-((R)-2-Hydroxy-2-((S)-1,2,3,4-tetrahydroisoquinolin-3-yl)ethyl)-2-(trifluoromethyl)benzamide] | 51100 nM
3 | O=C(NC[C@@H](O)[C@@H]1Cc2ccccc2CN1)c1ccccc1OC(F)(F)F [Example 6, N-((R)-2-Hydroxy-2-((S)-1,2,3,4-tetrahydroisoquinolin-3-yl)ethyl)-2-(trifluoromethoxy)benzamide] | 45800 nM
4 | COc1ccccc1C(=O)NC[C@@H](O)[C@@H]1Cc2ccccc2CN1 [Example 7, N-((R)-2-Hydroxy-2-((S)-1,2,3,4-tetrahydroisoquinolin-3-yl)ethyl)-2-methoxybenzamide] | 20000 nM
5 | O=C(NC[C@@H](O)[C@@H]1Cc2ccccc2CN1)c1ccccc1F [Example 9, 2-Fluoro-N-((R)-2-hydroxy-2-((S)-1,2,3,4-tetrahydroisoquinolin-3-yl)ethyl)benzamide] | 12500 nM
6 | Cc1ccccc1C(=O)NC[C@@H](O)[C@@H]1Cc2ccccc2CN1 [Example 10, N-((R)-2-Hydroxy-2-((S)-1,2,3,4-tetrahydroisoquinolin-3-yl)ethyl)-2-methylbenzamide] | 22500 nM
7 | O=C(NC[C@@H](O)[C@@H]1Cc2ccccc2CN1)c1cccc(-c2ccnnc2)c1 [Example 12, N-((R)-2-Hydroxy-2-((S)-1,2,3,4-tetrahydroisoquinolin-3-yl)ethyl)-3-(pyridazin-4-yl)benzamide] | 663 nM
8 | O=C(NC[C@@H](O)[C@@H]1Cc2ccccc2CN1)c1coc(-c2ccccc2)n1 [Example 14, N-((R)-2-Hydroxy-2-((S)-1,2,3,4-tetrahydroisoquinolin-3-yl)ethyl)-2-phenyloxazole-4-carboxamide] | 2330 nM
9 | O=C(NC[C@@H](O)[C@@H]1Cc2ccccc2CN1)c1csc(-c2ccccc2)n1 [Example 16, N-((R)-2-Hydroxy-2-((S)-1,2,3,4-tetrahydroisoquinolin-3-yl)ethyl)-2-phenylthiazole-4-carboxamide] | 662 nM
10 | O=C(NC[C@@H](O)[C@@H]1Cc2ccccc2CN1)c1cnn(-c2cccnc2)c1 [Example 17, N-((R)-2-Hydroxy-2-((S)-1,2,3,4-tetrahydroisoquinolin-3-yl)ethyl)-1-(pyridin-3-yl)-1H-pyrazole-4-carboxamide dihydrochloride salt] | 1270 nM
11 | O=C(NC[C@@H](O)[C@@H]1Cc2ccccc2CN1)c1cccc(-c2cncnc2)c1 [Example 18, N-((R)-2-Hydroxy-2-((S)-1,2,3,4-tetrahydroisoquinolin-3-yl)ethyl)-3-(pyrimidin-5-yl)benzamide] | 2100 nM
12 | O=C(NC[C@@H](O)[C@@H]1Cc2ccccc2CN1)c1cccc(C(F)F)c1 [Example 22, 3-(Difluoromethyl)-N-((R)-2-hydroxy-2-((S)-1,2,3,4-tetrahydroisoquinolin-3-yl)ethyl)benzamide] | 2150 nM
13 | O=C(NC[C@@H](O)[C@@H]1Cc2ccccc2CN1)c1ccccc1C(F)F [Example 23, 2-(Difluoromethyl)-N-((R)-2-hydroxy-2-((S)-1,2,3,4-tetrahydroisoquinolin-3-yl)ethyl)benzamide] | 5140 nM
14 | COC1CC2CCC(C1)N2C(=O)c1ccc(C(=O)NC[C@@H](O)[C@@H]2Cc3ccccc3CN2)cc1 (stereo partly drawn) [Example 38, N-((R)-2-Hydroxy-2-((S)-1,2,3,4-tetrahydroisoquinolin-3-yl)ethyl)-4-(3-methoxy-8-azabicyclo[3.2.1]octane-8-carbonyl)benzamide] | 599 nM

Further lines, results first:

Row | IC50 | SMILES
15 | 780 nM | O=C(NC[C@@H](O)[C@@H]1Cc2ccccc2CN1)c1ccc(C(=O)N2CC3CC2CO3)cc1 (mixture of isomers) [Example 94, 4-(2-Oxa-5-azabicyclo[2.2.1]heptane-5-carbonyl)-N-((R)-2-hydroxy-2-((S)-1,2,3,4-tetrahydroisoquinolin-3-yl)ethyl)benzamide]
16 | 551 nM | O=C(NC[C@@H](O)[C@@H]1Cc2ccccc2CN1)c1ccc(-c2nnc(N3CCOCC3)o2)cc1 [Example 13, N-((R)-2-Hydroxy-2-((S)-1,2,3,4-tetrahydroisoquinolin-3-yl)ethyl)-4-(5-morpholino-1,3,4-oxadiazol-2-yl)benzamide]
17 | 912 nM | CC(=O)N1CCC(N(C)C(=O)c2ccc(C(=O)NC[C@@H](O)[C@@H]3Cc4ccccc4CN3)cc2)CC1 [Example 19, N^1-(1-Acetylpiperidin-4-yl)-N^4-((R)-2-hydroxy-2-((S)-1,2,3,4-tetrahydroisoquinolin-3-yl)ethyl)-N^1 methylterephthalamide]
18 | 3690 nM | O=C(NC[C@@H](O)[C@@H]1Cc2ccccc2CN1)c1cccc(C(=O)N2CCOCC2)c1 [Example 24, N-((R)-2-Hydroxy-2-((S)-1,2,3,4-tetrahydroisoquinolin-3-yl)ethyl)-3-(morpholine-4-carbonyl)benzamide]
19 | 1700 nM | Cc1nnc(-c2ccc(C(=O)NC[C@@H](O)[C@@H]3Cc4ccccc4CN3)cc2)o1 [Example 25, N-((R)-2-Hydroxy-2-((S)-1,2,3,4-tetrahydroisoquinolin-3-yl)ethyl)-4-(5-methyl-1,3,4-oxadiazol-2-yl)benzamide]
20 | 535 nM | O=C(NC[C@@H](O)[C@@H]1Cc2ccccc2CN1)c1ccc(C(=O)N2CCOCC2)cn1 [Example 29, N-((R)-2-Hydroxy-2-((S)-1,2,3,4-tetrahydroisoquinolin-3-yl)ethyl)-5-(morpholine-4-carbonyl)picolinamide dihydrochloride salt]
21 | 139 nM | O=C(NC[C@@H](O)[C@@H]1Cc2ccccc2CN1)c1ccc(C(=O)N2CCC(O)(C(F)F)CC2)cc1 [Example 30, 4-(4-(Difluoromethyl)-4-hydroxypiperidine-1-carbonyl)-N-((R)-2-hydroxy-2-((S)-1,2,3,4-tetrahydroisoquinolin-3-yl)ethyl)benzamide]
22 | 204 nM | O=C(NCC1CCOCC1)c1ccc(C(=O)NC[C@@H](O)[C@@H]2Cc3ccccc3CN2)cc1 [Example 31, N^1-((R)-2-Hydroxy-2-((S)-1,2,3,4-tetrahydroisoquinolin-3-yl)ethyl)-N^4-((tetrahydro-2H-pyran-4-yl)methyl)terephthalamide]
23 | 511 nM | O=C(NC[C@@H](O)[C@@H]1Cc2ccccc2CN1)c1ccc(C(=O)N2CCC(CO)CC2)cc1 [Example 32, N-((R)-2-Hydroxy-2-((S)-1,2,3,4-tetrahydroisoquinolin-3-yl)ethyl)-4-(4-(hydroxymethyl)piperidine-1-carbonyl)benzamide]
24 | 305 nM | CCS(=O)(=O)N1CCN(C(=O)c2ccc(C(=O)NC[C@@H](O)[C@@H]3Cc4ccccc4CN3)cc2)CC1 [Example 33, 4-(4-(Ethylsulfonyl)piperazine-1-carbonyl)-N-((R)-2-hydroxy-2-((S)-1,2,3,4-tetrahydroisoquinolin-3-yl)ethyl)benzamide]
25 | 1680 nM | CS(=O)(=O)N1CCC(NC(=O)c2ccc(C(=O)NC[C@@H](O)[C@@H]3Cc4ccccc4CN3)cc2)CC1 [Example 34, N^1-((R)-2-Hydroxy-2-((S)-1,2,3,4-tetrahydroisoquinolin-3-yl)ethyl)-N^4-(1-(methylsulfonyl)piperidin-4-yl)terephthalamide hydrochloride]
26 | 152 nM | CC(=O)N1CCC(NC(=O)c2ccc(C(=O)NC[C@@H](O)[C@@H]3Cc4ccccc4CN3)cc2)CC1 [Example 35, N^1-(1-Acetylpiperidin-4-yl)-N^4-((R)-2-hydroxy-2-((S)-1,2,3,4-tetrahydroisoquinolin-3-yl)ethyl)terephthalamide]
27 | 148 nM | O=C(NC[C@@H](O)[C@@H]1Cc2ccccc2CN1)c1ccc(C(=O)N2C[C@H]3COC[C@H]3C2)cc1 [Example 36, 4-(cis-Hexahydro-1H-furo[3,4-c]pyrrole-5-carbonyl)-N-((R)-2-hydroxy-2-((S)-1,2,3,4-tetrahydroisoquinolin-3-yl)ethyl)benzamide]
28 | 846 nM | CC(C)N(C)C(=O)c1ccc(C(=O)NC[C@@H](O)[C@@H]2Cc3ccccc3CN2)cc1 [Example 39, N^1-((R)-2-Hydroxy-2-((S)-1,2,3,4-tetrahydroisoquinolin-3-yl)ethyl)-N^4-isopropyl-N^4-methylterephthalamide]
29 | 705 nM | O=C(NC[C@@H](O)[C@@H]1Cc2ccccc2CN1)c1ccc(C(=O)N2CCCOCC2)cc1 [Example 40, N-((R)-2-Hydroxy-2-((S)-1,2,3,4-tetrahydroisoquinolin-3-yl)ethyl)-4-(1,4-oxazepane-4-carbonyl)benzamide]
30 | 1390 nM | CN1CCN(C(=O)c2ccc(C(=O)NC[C@@H](O)[C@@H]3Cc4ccccc4CN3)cc2)CC1=O [Example 41, N-((R)-2-Hydroxy-2-((S)-1,2,3,4-tetrahydroisoquinolin-3-yl)ethyl)-4-(4-methyl-3-oxopiperazine-1-carbonyl)benzamide]
